Data reported in US20130116274A1 (RUTGERS, THE STATE UNIVERSITY OF NEW JERSEY, priority 2011, published 2013).

What was measured:
[1] = test system: C8161 melanoma cells; experiment: MTT cell viability assay, C8161; details: for cell proliferation and viability (number of viable cells): single agent, seven days, FIG. 1A
Description: (§6) MTT cell viability assays were performed as known in the art. C8161, UACC903, 1205Lu, SKMEL 187 and A2058 melanoma cell lines were used in the MTT assays. […] Viable cells were measured every day for 4 or 7 days. Absorbance was determined using a Tecan plate reader (Infinite 200 Tecan USA, Durham, N.C.) at 570 nm everyday for up to 7 days.

[2] = test system: SKMEL 28 human melanoma cells; experiment: MTT cell viability assay, SKMEL 28; assay type: cell-based; details: single agent 10 μM, FIG. 5A
Description: as §6

[3] = test system: AKT phosphorylation; experiment: Western immunoblot, phosphorylated AKT; assay type: cell-based; details: three human melanoma cell lines (C8161, UACC903, SKMEL 28)
Description: (§1) Protein lysates were prepared as commonly known in the art. Briefly, media was removed and cells were washed once with ice-cold phosphate buffered saline (PBS). After removal of PBS, the extraction buffer was added directly to the plates and cells were collected with a cell scraper. Cells were incubated on ice for 20 minutes. Cell debris was removed by centrifugation at 25,000×g at 4° C. for 20 minutes and supernatant taken for Western immunoblot analysis. Western Blotting was carried out with anti-PARP, anti-cleaved PARP, anti-phospho ERK, anti-total ERK, anti-a-tubulin antibodies, anti AKT and anti-Phospho AKT-S473.

[4] = test system: UACC903 melanoma cells; experiment: MTT cell viability assay, UACC903; assay type: cell-based, human; details: for cell proliferation and viability (number of viable cells): single agent, seven days
Description: as §6

[5] = test system: C8161 human melanoma xenografts; experiment: C8161 xenografts in immunodeficient nude mice; assay type: in vivo; details: riluzole 10 mg/kg
Description: (§2) The Institutional Review Board approved all animal studies for the Animal Care and Facilities Committee of Rutgers University. Nude mice were purchased from Taconic (Hudson, N.Y.). Cells were injected into 2 dorsal sites of each mouse at 10^6 cells per site. Tumor size was measured twice a week with a Vernier caliper and calculated as described. Once tumor volumes reached 6-10 mm^3, mice were divided into no treatment and treatment groups. […] The experiments were terminated when the xenografts in the no treatment group reached the maximum permitted size.
C8161 human melanoma cells were inoculated into the dorsal flanks of immunodeficient nude mice. 10^6 cells were inoculated into each dorsal flank of 5-6 week-old mice. When the tumors reached tumor volumes of ˜10 mm^3, the mice were randomly divided in 5 groups with similar tumor volumes. The mice were then treated by oral gavage daily, except for […] treatment, which was administered three times a week. […] Tumor volumes were determined once a week with a vernier caliper and the experiment was terminated when tumor burden in the control animals reached maximum permitted levels.

[6] = test system: C8161 human melanoma xenografts; experiment: Immunohistochemistry on excised C8161 xenografts (riluzole/MK2206 study); assay type: in vivo, mice; details: riluzole 10 mg/kg; for cleaved Caspase-3-positive (apoptotic) cells: MK2206 30 mg/kg, or riluzole 5 mg/kg + MK2206 15 mg/kg, combination p<0.001 vs single agent
Excerpt: (§3) Tissue Analytical Services at the Cancer Institute of New Jersey performed immunohistochemical staining on excised tumor xenografts to detect changes in the number of apoptotic and proliferating cells (activated Caspase 3 and Ki-67, respectively). The number of stained cells was quantified with a Digital Aperio ScanScopeGL system and ImageScope software (v 10.1.3.2028) (Aperio Technologies Inc., Vista, Calif.) according to the manufacturer's protocol.
Excised tumor samples were subjected to immunohistochemistry evaluation with the apoptosis marker, cleaved Caspase-3, and the proliferation index marker, Ki-67.

[7] = test system: ERK phosphorylation; experiment: Western immunoblot, ERK phosphorylation; assay type: cell-based, human; details: C8161, UACC903 and 1205Lu cells; harvested xenografts showed similar results
Description: as §1

[8] = test system: UACC903 human melanoma xenografts; experiment: UACC903 xenografts in immunodeficient nude mice; assay type: in vivo
Description: as §2
(§4) Briefly, UACC903 cells were injected into the dorsal flanks of nude mice. Tumors were allowed to grow to approximately 6-10 mm^3 and mice were divided into groups to obtain relatively constant tumor volumes between each group (12 mice per group).

[9] = test system: Mcl-1; experiment: Western immunoblot, Mcl-1 levels; assay type: cell-based, human; details: C8161, UACC903 and 1205Lu cells
[10] = test system: excised tumor xenografts; experiment: Immunohistochemistry on excised xenografts (riluzole/sorafenib study); assay type: in vivo, mice; details: for number of Ki-67 positive cells: Ki-67 immunohistochemistry; for number of positive Caspase 3 cells vs controls: cleaved Caspase 3 immunohistochemistry
Excerpt: as §3
Additionally, immunohistochemical analyses were performed on excised xenografts using antibodies against the cleaved form of Caspase 3 to detect apoptotic cell death, and Ki-67 to detect changes in cell proliferation.

[11] = test system: A2058 melanoma cells; experiment: MTT cell viability assay, A2058; assay type: cell-based, human; details: riluzole 25 μM or 50 μM vs no treatment or vehicle (DMSO)
Description: as §6

[12] = test system: UACC903 melanoma cells; experiment: Cell cycle analysis (propidium iodide flow cytometry), UACC903; assay type: cell-based, human; details: riluzole 10 μM, 24 hours post-treatment
Description: as §6

[13] = test system: melanoma; details: Phase II; cited from earlier work
[14] = test system: 1205Lu melanoma cells; experiment: MTT cell viability assay, 1205Lu; assay type: cell-based, human; details: for cell proliferation and viability (number of viable cells): single agent, seven days, FIG. 1C
Description: as §6

[15] = test system: A2058 melanoma cells; experiment: Cell cycle analysis (propidium iodide flow cytometry), A2058; assay type: cell-based, human; details: riluzole 10 μM, 24 hours post-treatment
Description: as §6

[16] = test system: cleaved form of PARP; experiment: Western analysis, cleaved PARP; assay type: cell-based, human; details: riluzole 10 μM; UACC903, 1205Lu, A2058 cells; 24 and 48 hours
Description: as §1, §4

[17] = test system: SKMEL2 human melanoma cell line; experiment: Three dimensional anchorage independent colony assay, SKMEL2; assay type: cell-based; details: riluzole 10 μM, sorafenib 5 μM or both; 14 days; vs control group; FIG. 2
Description: (§5) The cells were suspended in 0.35% agar in RPMI supplemented with 10% FBS and plated on a layer of 0.75% agar in the same medium in 12-well culture plates (1−1.5×10^4 cells/well). […] Every other day, the vehicle, or drug(s) was again added with 250 μl of complete medium. After 14 days, the colonies were stained with iodonitrotetrazolium chloride (Sigma) and photographed. The numbers of colonies were counted using Image J software. Quantitation was performed by comparing the total number of colonies from three representative photomicrographs from each experiment. The histograms represent the average of three independent experiments.

[18] = test system: UACC903 human melanoma cell line; experiment: Three dimensional anchorage independent colony assay, UACC903; assay type: cell-based; details: riluzole 10 μM, sorafenib 5 μM or both; 14 days; FIG. 2
Description: as §5

[19] = test system: SKMEL 187 melanoma cells; experiment: MTT cell viability assay, SKMEL 187; assay type: cell-based, human; details: riluzole 25 μM or 50 μM vs no treatment or vehicle (DMSO)
Description: as §6

[20] = test system: advanced melanoma; details: cited from earlier work
[21] = test system: C8161 human melanoma cell line; experiment: Three dimensional anchorage independent colony assay, C8161; assay type: cell-based; details: riluzole 10 μM, sorafenib 5 μM or both; 14 days; FIG. 2
Description: as §5

[22] = test system: 1205Lu melanoma cells; experiment: Cell cycle analysis (propidium iodide flow cytometry), 1205Lu; assay type: cell-based, human; details: riluzole 10 μM, 24 hours post-treatment
Description: as §6

[23] = test system: 1205Lu human melanoma cell line; experiment: Three dimensional anchorage independent colony assay, 1205Lu; assay type: cell-based; details: riluzole 10 μM, sorafenib 5 μM or both; 14 days; FIG. 2
Description: as §5

[24] = test system: 1205Lu human melanoma xenografts; experiment: 1205Lu xenografts in immunodeficient nude mice; assay type: in vivo; details: riluzole 10 mg/kg, sorafenib 24 mg/kg, or riluzole 5 mg/kg + sorafenib 12 mg/kg daily oral gavage; FIG. 3C
Description: as §2

[25] = riluzole 25 μM or 50 μM vs no treatment or vehicle (DMSO)

| SMILES | AKT phosphorylation [3] | cleaved Caspase-3-positive (apoptotic) cells [6] | ERK phosphorylation [7] | Mcl-1 levels [9] | cell proliferation and viability (number of viable cells) [1] | number of Ki-67 positive cells [10] | number of positive Caspase 3 cells vs controls [10] | cell proliferation and viability (number of viable cells) ([4]; FIG. 1B) | cell proliferation and viability (number of viable cells) [14] | decrease in colony formation [17] | reduction in the number of colonies [18] | decrease in colony formation [21] | reduction in colony formation [23] [%] | also measured |
| --- | --- | --- | --- | --- | --- | --- | --- | --- | --- | --- | --- | --- | --- | --- |
| NC1(c2ccc(-c3nc4ccn5c(=O)[nH]nc5c4cc3-c3ccccc3)cc2)CCC1 [MK2206] | suppress AKT phosphorylation | significant increase in apoptotic cells | – | – | – | – | – | – | – | – | – | – | – | cell proliferation ([1]; single agent 10 μM, FIG. 5A): suppress cell proliferation; cell proliferation [2]: suppress cell proliferation; cell proliferation ([4]; single agent 10 μM, FIG. 5A): suppress cell proliferation; tumor volume / xenograft growth ([5]; MK2206 30 mg/kg, or riluzole 5 mg/kg + MK2206 15 mg/kg, oral gavage, FIG. 6, combination p<0.005 vs NT or vehicle): suppress the growth of the melanoma xenografts; number of Ki-67 positive cells ([6]; MK2206 30 mg/kg, or combination at half the dose of each (p<0.001)): decrease in the number of Ki-67 positive cells |
| CCCS(=O)(=O)Nc1ccc(F)c(C(=O)c2c[nH]c3ncc(Cl)cc23)c1F [PLX4720] | – | – | only found to suppress ERK activity in the B-RAF^V600E cell line UACC903 | does not down regulate the levels of Mcl-1 | – | – | – | – | – | – | – | – | – | inhibition in cell proliferation ([1]; PLX4720 10 uM): only slight inhibition in cell proliferation; IC50 ([4]; Homo sapiens, UACC-903, UACC903 cells, MTT, FIG. 1B): 100 nM; tumor progression ([8]; riluzole 10 mg/kg, PLX4720 20 mg/kg, or riluzole 5 mg/kg + PLX4720 10 mg/kg, FIG. 3D): not as potent as riluzole |
| Nc1nc2ccc(OC(F)(F)F)cc2s1 [riluzole] | suppress AKT phosphorylation | significant increase in apoptotic cells | decrease in levels of ERK phosphorylation in a cell line-dependent manner | – | greatest reduction in the number of viable cells | reduced | substantial increase in the number of positive Caspase 3 cells | not as sensitive to riluzole | not as sensitive to riluzole | 18% | very little inhibitory activity | 40% | 30 | number of viable cells [1, 25]: significantly decreased the number of viable cells; number of viable cells [11]: significantly decreased the number of viable cells; cells accumulating in the G2/M phase [12]: about half; number of viable cells [4, 25]: significantly decreased the number of viable cells; RECIST criteria responses [13]: no RECIST criteria responses; patients exhibiting stable disease [13]: 42%; number of viable cells [14, 25]: significantly decreased the number of viable cells; cells accumulating in the G2/M phase [15]: about half; cleaved form of PARP [16]: increase in the cleaved form of PARP; number of viable cells [19]: significantly decreased the number of viable cells; tumor size vs controls ([8]; single agent riluzole daily by oral gavage, day 18, 12 mice per group): substantial difference between the tumor sizes; patients showing measurable clinical responses ([20]; Phase 0, patients with advanced melanoma given riluzole): 34%; decrease in tumor size ([20]; Phase 0, some tumors): over 90%; cells accumulating in the G2/M phase [22]: about half |
| CNC(=O)c1cc(Oc2ccc(NC(=O)Nc3ccc(Cl)c(C(F)(F)F)c3)cc2)ccn1 [sorafenib] | – | – | more highly suppress ERK phosphorylation in UACC903 and 1205Lu cells than in C8161 cells | reduction in Mcl-1 levels was detected in sorafenib-treated UACC903 and 1205 LU cells | not very effective in suppressing C8161 cell growth | reduced | substantial increase in the number of positive Caspase 3 cells | substantial decrease in the number of viable cells | substantial decrease in the number of viable cells | more efficacious at decreasing colony formation | 45% | little effect | 30 | tumor volume response compared to UACC903 xenografts [24]: more sensitive; tumor volume ([5]; sorafenib 24 mg/kg, or riluzole 5 mg/kg + sorafenib 12 mg/kg daily oral gavage, FIG. 3A, p<0.001 for riluzole and combination vs NT or Veh): did not yield a significant decrease in tumor size; tumor volume ([8]; riluzole 10 mg/kg, sorafenib 24 mg/kg, or riluzole 5 mg/kg + sorafenib 12 mg/kg daily oral gavage, FIG. 3B, p<0.01 single agents day 18, p<0.001 combination): statistically relevant responses |
